Laboratory results as given in publication PMC5404560, “Towards Selective Mycobacterial ClpP1P2 Inhibitors with Reduced Activity against the Human Proteasome” (Antimicrobial Agents and Chemotherapy, 2017).

Assays:
[1] = Mouse liver microsome stability; format: in vitro ADME; conditions: liver microsomes, read-out: MLM t1/2
Method: A parallel artificial-membrane permeability assay (PAMPA) and mouse liver microsome (MLM), human liver microsome (HLM), aqueous solubility, Log D, protein binding, and cytochrome P450 2D6 and 3A4 assays were carried out at Piramal Pharma Solutions.

Chymase = Chymase (Homo sapiens, UniProt P23946); assay: Protease panel: Chymase; format: biochemical; conditions: Table 6; 10-dose response, top 10 μM
Method: (§1) Protease panel testing was carried out by Reaction Biology Corporation.

Plasma kallikrein = target: T1, Plasma kallikrein (Homo sapiens, UniProt P03952); assay: Protease panel: Plasma kallikrein; format: biochemical; conditions: Table 6; 10-dose response, top 10 μM
T1 construct: Reaction Biology Corporation (contract testing)
T1 sequence (P03952 20-638, species assumed): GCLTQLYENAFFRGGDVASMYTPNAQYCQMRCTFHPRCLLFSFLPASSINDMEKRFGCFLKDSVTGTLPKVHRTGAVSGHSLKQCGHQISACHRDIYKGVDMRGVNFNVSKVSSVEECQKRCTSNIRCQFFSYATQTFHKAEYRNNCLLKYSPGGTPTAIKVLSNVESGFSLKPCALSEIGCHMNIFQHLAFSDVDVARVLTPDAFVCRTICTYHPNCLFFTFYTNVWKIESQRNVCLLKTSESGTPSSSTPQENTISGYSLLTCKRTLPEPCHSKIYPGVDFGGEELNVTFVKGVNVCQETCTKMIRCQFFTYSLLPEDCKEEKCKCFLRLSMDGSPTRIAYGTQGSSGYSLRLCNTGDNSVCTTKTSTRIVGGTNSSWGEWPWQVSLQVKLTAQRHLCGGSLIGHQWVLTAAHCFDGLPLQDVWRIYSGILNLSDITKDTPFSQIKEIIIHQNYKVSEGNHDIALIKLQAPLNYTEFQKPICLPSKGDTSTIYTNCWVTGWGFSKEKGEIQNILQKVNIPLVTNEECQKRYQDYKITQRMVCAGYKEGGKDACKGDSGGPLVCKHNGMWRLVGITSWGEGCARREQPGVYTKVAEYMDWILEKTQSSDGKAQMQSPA
Method: as §1

Chain of Chymase (P23946 22-247, species assumed): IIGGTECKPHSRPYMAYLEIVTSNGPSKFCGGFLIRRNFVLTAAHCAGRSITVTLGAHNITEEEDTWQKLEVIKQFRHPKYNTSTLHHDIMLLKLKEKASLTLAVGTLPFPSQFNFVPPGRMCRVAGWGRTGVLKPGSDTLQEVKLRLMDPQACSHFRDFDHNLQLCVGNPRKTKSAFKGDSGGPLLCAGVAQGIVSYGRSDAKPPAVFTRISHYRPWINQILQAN

With `O=C(N[C@@H](Cc1ccccn1)C(=O)N[C@@H](CCc1ccccc1)B(O)O)c1cnccn1` [Compound 58, ((R)-3-phenyl-1-((S)-2-(pyrazine-2-carboxamido)-3-(pyridin-2-yl)propanamido)propyl)boronic acid] the half-life [1] was about 8 min, the IC50 (Chymase) was 5.75 µM and the IC50 (Plasma kallikrein) was 4.4 µM.
